Like-named read-outs stand apart in the source and are kept apart here.
Legend:
MRC-5 cells = assay: Cellular toxicity to MRC-5 cells (XTT); details: 6 days, duplicate data points
HCoV-229E = assay: Anti-coronavirus cytoprotection assay (XTT, reduction of viral cytopathic effect) in MRC-5 cells; details: for activity against HCoV-229E at the tested concentrations: MRC-5 cells, high test concentration 100 µM; for Therapeutic Index (TC50/EC50): MRC-5/HCoV-229E
[1] = Human coronavirus 229E, MRC5, 144 h, read-out: EC50 (effective concentration that reduced 50% of viral cytopathic effect), HCoV-229E in MRC-5 cells, 6 days, triplicate data points
[2] = listed as 5′-O-tetradecanoyl ester conjugate of FTC (9)

Structure (SMILES)	TC50 (toxic concentration that killed 50% of MRC-5 cells) (MRC-5 cells)	EC50 (HCoV-229E; [1])	activity against HCoV-229E at the tested concentrations (HCoV-229E)	also measured
Nc1ccn([C@H]2CS[C@@H](CO)O2)c(=O)n1 [3TC (6), 2′,3′-Dideoxy-3′-thiacytidine]	> 100 µM	> 100 µM	not active	
CCSCCCCCCCCCCCC(=O)OC[C@H]1O[C@@H](n2cc(C)c(=O)[nH]c2=O)C[C@@H]1F [5′-O-(12-thioethydodecanoyl)FLT (5), 5′-O-(12-thioethydodecanoyl)FLT]	45.4 µM	> 45.4 µM		TC50 (toxic concentration that killed 50% of MRC-5 cells) (MRC-5 cells; listed as 5): 45.4 to 55.3 µM
CCCCCCCCCCCCCC(=O)OC[C@@H]1O[C@H](n2ccc(N)nc2=O)CS1 [5′-O-(tetradecanoyl)3TC (7), 5′-O-(tetradecanoyl)3TC]	47.5 µM	> 47.5 µM		TC50 (toxic concentration that killed 50% of MRC-5 cells) (MRC-5 cells; listed as 7): 45.4 to 55.3 µM
CCCCCCCCCCCCCC(=O)OC[C@@H]1O[C@H](n2cc(F)c(N)nc2=O)CS1 [5′-O-(tetradecanoyl)FTC (9), 5′-O-(tetradecanoyl)FTC]	87.5 µM	72.8 µM		TC50 (toxic concentration that killed 50% of MRC-5 cells) (MRC-5 cells; [2]): 87.5 ± 1.34 µM; Therapeutic Index (TC50/EC50) (HCoV-229E): 1.20; Therapeutic Index (TC50/EC50) (HCoV-229E; [2]): 1.2
C#C[C@]1(CO)O[C@@H](n2cnc3c(N)nc(F)nc32)C[C@@H]1O [EFdA (3), 4′-ethynyl-2-fluoro-2′-deoxyadenosine]	55.3 µM	> 55.3 µM		TC50 (toxic concentration that killed 50% of MRC-5 cells) (MRC-5 cells; listed as 3): 45.4 to 55.3 µM
Cc1cn([C@H]2C[C@H](F)[C@@H](CO)O2)c(=O)[nH]c1=O [FLT (4), 3′-Fluoro-3′-deoxythymidine]	> 100 µM	> 100 µM	not active	
Nc1nc(=O)n([C@H]2CS[C@@H](CO)O2)cc1F [FTC (8), 2′,3′-dideoxy-5-fluoro-3′-thiacytidine]	> 100 µM	> 100 µM	not active	
CCC(CC)COC(=O)[C@H](C)N[P@](=O)(OC[C@H]1O[C@@](C#N)(c2ccc3c(N)ncnn23)[C@H](O)[C@@H]1O)Oc1ccccc1 [Remdesivir (1), Remdesivir]	> 2.0 µM	0.067 ± 0.012 µM		TC50 (toxic concentration that killed 50% of MRC-5 cells) (MRC-5 cells; listed as Remdesivir): > 2.0 µM; TC50 (toxic concentration that killed 50% of MRC-5 cells) (MRC-5 cells; listed as remdesivir): > 2.00 µM; TC50 (toxic concentration that killed 50% of MRC-5 cells) (MRC-5 cells; listed as remdesivir (1)): > 2 ± 0 µM; EC50 (HCoV-229E; read-out: EC50 (effective concentration that reduced 50% of viral cytopathic effect), HCoV-229E in MRC-5 cells, 6 days, triplicate data points): 0.07 µM
C[C@H](Cn1cnc2c(N)ncnc21)OCP(=O)(O)O [TFV (2), Tenofovir]	> 100 µM	> 100 µM		

Source: article PMC7287735 (Molecules, 2020)
